Source: ChEMBL document CHEMBL3885861, “Open TG-GATES”

Species: Rattus norvegicus
Assay: Open TG-GATES - Regimen: Single
Type: toxicity, organism-based, Sprague-Dawley
Set-up: regimen Single, gender Male, age 6 weeks
Conditions: in vivo, po, 100 mg/kg, route gavage, dose level Low; for ALP / ALT / AST / BUN / CRE / Ca / Cl / DBIL / GLC / IP / K / LDH / Na / PL / RALB / TBIL / TC / TG / TP / gamma-GTP: tissue Plasma

SMILES: O=C(O)c1cccnc1 [NIACIN]
- Bas (3 h, tissue Blood): 0%
- Eos (3 h, tissue Blood): 1%
- Fbg (3 h, tissue Blood): 311 mg/dL
- Hb (3 h, tissue Blood): 13.6 g/dL
- Ht (3 h, tissue Blood): 40.7%
- Lym (3 h, tissue Blood): 78.4%
- MCHC (3 h, tissue Blood): 33.4%
- MCV (3 h, tissue Blood): 65.5 fL
- Mono (3 h, tissue Blood): 2.6%
- Neu (3 h, tissue Blood): 16.6%
- PT (3 h, tissue Blood): 16.2 s
- Plat (3 h, tissue Blood): 118.2 x10_4/uL
- RBC (3 h, tissue Blood): 621.4 x10_4/ul
- Ret (3 h, tissue Blood): 8.2%
- WBC (3 h, tissue Blood): 107.6 x10_2/uL
- ALP (3 h): 1552.4 IU/L
- ALT (3 h): 42.2 IU/L
- AST (3 h): 79.8 IU/L
- BUN (3 h): 13.6 mg/dL
- CRE (3 h): 0.2 mg/dL
- Ca (3 h): 10.8 mg/dL
- Cl (3 h): 105.4 meq/L
- DBIL (3 h): 0 mg/dL
- GLC (3 h): 183 mg/dL
- IP (3 h): 8.7 mg/dL
- K (3 h): 3.9 meq/L
- LDH (3 h): 196.8 IU/L
- Na (3 h): 141 meq/L
- PL (3 h): 118.4 mg/dL
- RALB (3 h): 3 g/dL
- TBIL (3 h): 0.008 mg/dL
- TC (3 h): 71 mg/dL
- TG (3 h): 27.8 mg/dL
- TP (3 h): 5.6 g/dL
- gamma-GTP (3 h): 1.4 IU/L
- APTT (6 h, tissue Blood): 22.5 s
- Bas (6 h, tissue Blood): 0%
- Eos (6 h, tissue Blood): 1%
- Fbg (6 h, tissue Blood): 314 mg/dL
- Hb (6 h, tissue Blood): 13.4 g/dL
- Ht (6 h, tissue Blood): 40%
- Lym (6 h, tissue Blood): 78.4%
- MCHC (6 h, tissue Blood): 33.4%
- Mono (6 h, tissue Blood): 3.4%
- Neu (6 h, tissue Blood): 16.2%
- PT (6 h, tissue Blood): 16.5 s
- Plat (6 h, tissue Blood): 119.1 x10_4/uL
- RBC (6 h, tissue Blood): 626.8 x10_4/ul
- Ret (6 h, tissue Blood): 8%
- WBC (6 h, tissue Blood): 87.9 x10_2/uL
- ALP (6 h): 1431.4 IU/L
- ALT (6 h): 38.8 IU/L
- AST (6 h): 69.8 IU/L
- BUN (6 h): 12.4 mg/dL
- CRE (6 h): 0.2 mg/dL
- Ca (6 h): 10.9 mg/dL
- Cl (6 h): 105 meq/L
- DBIL (6 h): 0.002 mg/dL
- GLC (6 h): 186 mg/dL
- IP (6 h): 8.9 mg/dL
- K (6 h): 3.8 meq/L
- LDH (6 h): 156.8 IU/L
- Na (6 h): 139.8 meq/L
- PL (6 h): 115 mg/dL
- RALB (6 h): 3 g/dL
- TBIL (6 h): 0.008 mg/dL
- TC (6 h): 64.4 mg/dL
- TG (6 h): 37.2 mg/dL
- TP (6 h): 5.5 g/dL
- gamma-GTP (6 h): 1.6 IU/L
- Bas (9 h, tissue Blood): 0%
- Eos (9 h, tissue Blood): 0.8%
- Fbg (9 h, tissue Blood): 305.4 mg/dL
- Hb (9 h, tissue Blood): 13.5 g/dL
- Ht (9 h, tissue Blood): 40.6%
- Lym (9 h, tissue Blood): 81.6%
- MCHC (9 h, tissue Blood): 33.3%
- MCV (9 h, tissue Blood): 65.6 fL
- Mono (9 h, tissue Blood): 2%
- Neu (9 h, tissue Blood): 15.2%
- PT (9 h, tissue Blood): 15.6 s
- Plat (9 h, tissue Blood): 126.3 x10_4/uL
- RBC (9 h, tissue Blood): 618.6 x10_4/ul
- Ret (9 h, tissue Blood): 8.4%
- WBC (9 h, tissue Blood): 88.6 x10_2/uL
- ALP (9 h): 1314.4 IU/L
- ALT (9 h): 38.8 IU/L
- AST (9 h): 70.4 IU/L
- CRE (9 h): 0.2 mg/dL
- Ca (9 h): 10.8 mg/dL
- Cl (9 h): 105.4 meq/L
- DBIL (9 h): 0.002 mg/dL
- GLC (9 h): 182.8 mg/dL
- IP (9 h): 8.9 mg/dL
- K (9 h): 4.1 meq/L
- LDH (9 h): 161.4 IU/L
- Na (9 h): 140.6 meq/L
- PL (9 h): 134 mg/dL
- RALB (9 h): 2.9 g/dL
- TBIL (9 h): 0.008 mg/dL
- TC (9 h): 73 mg/dL
- TG (9 h): 77 mg/dL
- TP (9 h): 5.5 g/dL
- gamma-GTP (9 h): 1.6 IU/L
- Bas (24 h, tissue Blood): 0%
- Eos (24 h, tissue Blood): 1%
- Fbg (24 h, tissue Blood): 327.8 mg/dL
- Hb (24 h, tissue Blood): 13.7 g/dL
- Ht (24 h, tissue Blood): 40.6%
- Lym (24 h, tissue Blood): 77.8%
- MCHC (24 h, tissue Blood): 33.6%
- MCV (24 h, tissue Blood): 64.8 fL
- Mono (24 h, tissue Blood): 3%
- Neu (24 h, tissue Blood): 17.2%
- PT (24 h, tissue Blood): 16 s
- Plat (24 h, tissue Blood): 109.3 x10_4/uL
- RBC (24 h, tissue Blood): 627.6 x10_4/ul
- Ret (24 h, tissue Blood): 7.6%
- WBC (24 h, tissue Blood): 96.3 x10_2/uL
- ALP (24 h): 1716.6 IU/L
- ALT (24 h): 41.6 IU/L
- AST (24 h): 67.2 IU/L
- BUN (24 h): 16.2 mg/dL
- CRE (24 h): 0.2 mg/dL
- Ca (24 h): 10.5 mg/dL
- Cl (24 h): 104.6 meq/L
- DBIL (24 h): 0.002 mg/dL
- GLC (24 h): 192 mg/dL
- IP (24 h): 7.6 mg/dL
- K (24 h): 4.1 meq/L
- LDH (24 h): 155.4 IU/L
- Na (24 h): 139.6 meq/L
- PL (24 h): 154.2 mg/dL
- RALB (24 h): 3.1 g/dL
- TBIL (24 h): 0 mg/dL
- TC (24 h): 75.2 mg/dL
- TG (24 h): 158.4 mg/dL
- TP (24 h): 5.6 g/dL
